Molecules are shown by their SMILES. pIC50: −log10 of the molar value.

The nature of assay [1]: Inhibition of RIP1 in mouse L929 cells assessed as reduction in TNFalpha/QVD-Oph-induced necrosis after 24 hrs by Cell Titer-Glo luminescent cell viability assay.
Assay [2] is described as follows: Inhibition of RIP1 in human U937 cells assessed as reduction in TNFalpha/QVD-Oph-induced necrosis after 24 hrs by Cell Titer-Glo luminescent cell viability assay.

`CN1C(=O)[C@@H](NC(=O)c2n[nH]c(Cc3ccccc3)n2)COc2ccccc21`: in assay [1], the negative-log IC50 (pIC50) is 5.89.

In the case of `CN1C(=O)[C@@H](NC(=O)c2cc(Cc3ccccc3)on2)COc2ccc(-c3n[nH]c(=O)o3)cc21`, the pIC50 in assay [2] was 8.49.

For the molecule `CN1C(=O)[C@@H](NC(=O)c2ncc(Cc3ccccc3)o2)COc2ccccc21`, the pIC50 in assay [2] is 9.00.

As for `CN1C(=O)[C@@H](NC(=O)c2cc(Cc3ccccc3)n(C)n2)COc2ccccc21`, the pIC50 in assay [2] was 8.00.

`CN1C(=O)[C@@H](NC(=O)c2nnc(Cc3ccccc3)o2)COc2ccccc21`: the pIC50 in assay [2] is 8.10.

Take `CN1C(=O)[C@@H](NC(=O)c2noc(Cc3ccccc3)n2)COc2ccccc21`: in assay [2], the pIC50 was 8.30.

As for `CN1C(=O)[C@@H](NC(=O)c2cnn(Cc3ccccc3)c2)COc2ccccc21`, the negative logarithm of the IC50 (pIC50) in assay [2] was 6.20.

`CN1C(=O)[C@@H](NC(=O)c2c[nH]c(Cc3ccccc3)n2)COc2ccccc21`: the pIC50 in assay [2] was 5.70.

With `O=C(N[C@H]1CCOc2ccccc2NC1=O)c1cc(Cc2ccccc2)on1`, in assay [2], the pIC50 is 6.20.

Consider `CN1C(=O)[C@@H](NC(=O)c2ncn(Cc3ccccc3)n2)COc2ccccc21`, for which the negative-log IC50 (pIC50) in assay [2] is 8.80.

Regarding `CN1C(=O)[C@@H](NC(=O)c2cc(Cc3ccccc3)ccn2)COc2ccccc21`, in assay [2], the negative-log IC50 (pIC50) is 7.40.

Turning to `CN1C[C@H](NC(=O)c2cc(Cc3ccccc3)on2)C(=O)N(C)c2ccccc21`, in assay [2], the pIC50 was 7.70.

As for `CC(=O)Nc1ccc2c(c1)N(C)C(=O)[C@@H](NC(=O)c1cc(Cc3ccccc3)on1)CO2`, the negative-log IC50 (pIC50) in assay [2] is 8.10.

As for `CC(C)Cc1cc(C(=O)N[C@H]2COc3ccccc3N(C)C2=O)no1`, the pIC50 in assay [2] was 5.20.

Take `CCCCCc1cc(C(=O)N[C@H]2COc3ccccc3N(C)C2=O)no1`: in assay [2], the negative logarithm of the IC50 (pIC50) is 6.90.

Turning to `COC(=O)Nc1ccc2c(c1)N(C)C(=O)[C@@H](NC(=O)c1cc(Cc3ccccc3)on1)CO2`, in assay [2], the pIC50 is 8.00.

Take `CN1C(=O)[C@@H](NC(=O)c2cc(Cc3ccccc3)on2)COc2ccc(NS(C)(=O)=O)cc21`: the negative-log IC50 (pIC50) in assay [2] is 7.89.

For the molecule `CN1C(=O)[C@@H](NC(=O)c2cc(Cc3ccccc3)on2)COc2ccc(-c3cc[nH]n3)cc21`, the pIC50 in assay [2] was 8.20.

Turning to `CN1C(=O)[C@@H](NC(=O)c2coc(Cc3ccccc3)n2)COc2ccccc21`, the negative-log IC50 (pIC50) in assay [2] was 5.60.

Take `CN1C(=O)[C@@H](NC(=O)c2cn(Cc3ccccc3)nn2)COc2ccccc21`: in assay [2], the pIC50 was 7.60.

In the case of `CN1C(=O)[C@@H](NC(=O)c2cccc(Cc3ccccc3)c2)COc2ccccc21`, in assay [2], the pIC50 was 6.40.

`CN1C(=O)[C@@H](NC(=O)c2cc(CC3CCCCC3)on2)COc2ccccc21`: the pIC50 in assay [2] was 6.30.

`CN1C(=O)[C@@H](NC(=O)c2cn(Cc3ccccc3)cn2)COc2ccccc21`: the pIC50 in assay [2] was 8.20.

With `CN1C(=O)[C@@H](NC(=O)c2nnn(Cc3ccccc3)n2)COc2ccccc21`, in assay [2], the negative-log IC50 (pIC50) was 8.60.

For the molecule `CCN1C(=O)[C@@H](NC(=O)c2cc(Cc3ccccc3)on2)COc2ccccc21`, the negative-log IC50 (pIC50) in assay [2] was 5.10.
